One block for each compound: values may come before it.
Tests used:
[1] = tested on: PRL-3+ and PRL-3− cancer cells; test: In vitro cancer cell growth assay; type: cell-based; details: PRL-3+ and PRL-3− cells; PRL3-zumab up to 50 mg/mL
[2] = parameters: species or system Balb/C nude mice; details: mouse, in vivo
Description: WBC staining of mouse blood smears: After smearing a thin layer from a drop of fresh mouse blood on a glass slide, slides were baked at 37° C. for 1 h before flooding with modified Wright Giemsa stain (Sigma) for 1 min followed by washing with deionized water for 3 min. After drying, the stained slide was observed under microscope, with WBCs stained blue. Estimation of total WBC was performed under light microscopy (Olympus) by counting in ten visual fields in each slide and calculation using the equation WBCs/μl=(total number of counted WBC/number of fields)×2000. Full blood counts: Hematological analysis of mice samples was conducted by Quest Laboratories (Singapore).
We tested four treatment protocols: PBS control (Group 1), PRL3-zumab monotherapy (Group 2), PRL3-zumab+5-FU combination therapy (Group 3), or 5-FU monotherapy (Group 4). According to the treatment protocol, bi-weekly doses of PRL3-zumab (100 μg/dose) or 5-FU (30 mg/kg/dose) were administered individually, or in combination, intravenously into groups of nude mice carrying orthotopic PRL-3^+ SNU-484 gastric tumors.

[3] = tested on: PRL-3^+ SNU-484 orthotopic gastric tumors; test: Orthotopic gastric cancer model, SNU-484; type: in vivo, Balb/C nude mice
Description: Eight-week old male Balb/C nude mice obtained from the Biological Resource Centre (A*STAR, Singapore) were used for all animal models in this study. […] The stomach was taken out through the abdominal incision by surgical forceps, and cancer cells were injected into the subserosa layer. Subsequently, the stomach was placed back and the abdomen was sutured back in layers. […] The treatment regime commenced on day 2 post-inoculation of cancer cells in the gastric subserosa layer. […] PBS was used as a control in “untreated” mice. […] Tumor volumes were calculated using the formula: volume=0.4×tumor length×tumor width×tumor width.
10 μm-thick cryosection slides were fixed with 4% formalin for 20 min and incubated with 1% H2O2-PBS in the dark for 5 min. Washed slides were then blocked in PBS containing 10% goat serum and 1% BSA (Sigma) for 1 h at RT. Subsequently, slides were washed four times in PBS-0.05% Tween-20 with gentle shaking and incubated with goat anti-human labeled polymer-HRP (Dako) for 2 h before washing extensively and incubating with substrate-chromogen solution (Dako) for 10-20 min in the dark. Mounted slides were examined using a brightfield microscope (Olympus) and representative images were captured.

[4] = tested on: advanced HCC; details: cited from earlier work

SMILES: N.N.[Cl][Pt][Cl] [cisplatin]
- cancer cell growth in vitro [1]: dose-dependent, nonspecific cell killing

- overall animal activity [2]: reduction in overall animal activity
- reduction in peripheral WBC counts compared to control or PRL3-zumab monotherapy [2]: 5 fold
SMILES: O=c1[nH]cc(F)c(=O)[nH]1 [5-FU, 5-fluorouracil]
- haematological profile (full blood counts) [2]: reduced neutrophil, lymphocyte, and monocyte counts
- mean tumor volume ([3]; four-group study, bi-weekly i.v. PRL3-zumab 100 μg/dose and/or 5-FU 30 mg/kg/dose, Day 28, n=5 per group): 1.76±0.52 cm^3
- numbers of infiltrating B cells and NK cells (immunofluorescence) ([3]; tumor sections, compared to untreated): lack of B or NK cell infiltration

SMILES: CNC(=O)c1cc(Oc2ccc(NC(=O)Nc3ccc(Cl)c(C(F)(F)F)c3)cc2)ccn1 [Sorafenib]
- extended median survival [4]: 2.8 months
